Measured values taken from patent US12209087B2, “AKT1 modulators” (Alterome Therapeutics, Inc., priority 2022, dated 2025).

Target: T1, full length AKT E17K (Homo sapiens, UniProt P31749, E17K)
T1 construct: host or cells: HEK-293 (ATCC CRL-1573)
Test: NanoBRET Target Engagement (TE) Assay
Assay type: cell-based
Conditions: competitive tracer displacement in living cells, read-out: AKT1 E17K IC50
Summary of the method: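 Compound and tracer incubated 2 h before luminescence at donor 450 nm and acceptor 600 nm, with extracellular signal inhibited. EC50 by sigmoidal variable-slope regression.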

T1 sequence (P31749 whole entry E17K): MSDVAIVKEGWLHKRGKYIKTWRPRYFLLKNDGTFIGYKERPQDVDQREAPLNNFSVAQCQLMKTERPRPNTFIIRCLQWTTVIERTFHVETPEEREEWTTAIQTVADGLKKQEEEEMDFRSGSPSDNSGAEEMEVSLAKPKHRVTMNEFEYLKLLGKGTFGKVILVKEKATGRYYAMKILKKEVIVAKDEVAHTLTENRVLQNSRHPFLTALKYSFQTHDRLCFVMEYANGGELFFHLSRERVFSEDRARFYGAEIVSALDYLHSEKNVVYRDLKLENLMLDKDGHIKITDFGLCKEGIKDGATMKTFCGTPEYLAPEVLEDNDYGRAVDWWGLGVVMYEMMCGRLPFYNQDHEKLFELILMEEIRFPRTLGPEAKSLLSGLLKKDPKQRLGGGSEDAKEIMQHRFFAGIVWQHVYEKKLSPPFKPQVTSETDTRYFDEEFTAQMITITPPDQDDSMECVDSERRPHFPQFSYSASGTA

| Structure (SMILES) | IC50 |
| --- | --- |
| C[C@@H]1CN(Cc2ccc(-n3c(-c4cccnc4N)nc4ccc(-c5ccccc5)nc43)cc2)C[C@H](C)N1c1ncnc(C#N)n1 [Example 277, 4-((2R,6S)-4-(4-(2-(2-aminopyridin-3-yl)-5-phenyl-3H-imidazo[4,5-b]pyridin-3-yl)benzyl)-2,6-dimethylpiperazin-1-yl)-1,3,5-triazine-2-carbonitrile] | 0.015 to 0.06 µM |
| N#Cc1ncnc(NC2CCCN(Cc3ccc(-n4c(-c5cccnc5N)nc5ccc(-c6ccccc6)nc54)cc3)CC2)n1 (stereo not shown) [Example 278, 4-((1-(4-(2-(2-Aminopyridin-3-yl)-5-phenyl-3H-imidazo[4,5-b]pyridin-3-yl)benzyl)azepan-4-yl)amino)-1,3,5-triazine-2-carbonitrile] | 0.015 to 0.06 µM |
| N#Cc1ncnc(NC2COCCN(Cc3ccc(-n4c(-c5cccnc5N)nc5ccc(-c6ccccc6)nc54)cc3)C2)n1 (stereo not shown) [Example 279, 4-((4-(4-(2-(2-Aminopyridin-3-yl)-5-phenyl-3H-imidazo[4,5-b]pyridin-3-yl)benzyl)-1,4-oxazepan-6-yl)amino)-1,3,5-triazine-2-carbonitrile] | < 0.015 µM |
| Cc1ccc2nc(-c3cccnc3N)n(-c3ccc(CN4CCC(Nc5ccnc(C#N)n5)CC4)cc3)c2n1 [Example 280, 4-((1-(4-(2-(2-Aminopyridin-3-yl)-5-methyl-3H-imidazo[4,5-b]pyridin-3-yl)benzyl)piperidin-4-yl)amino)pyrimidine-2-carbonitrile] | < 0.015 µM |
| N#Cc1cc(N2CCN(Cc3ccc(-n4c(-c5cccnc5N)nc5ccc(N6CCCNC(=O)C6)nc54)cc3)CC2)ncn1 [Example 284, 6-(4-(4-(2-(2-Aminopyridin-3-yl)-5-(3-oxo-1,4-diazepan-1-yl)-3H-imidazo[4,5-b]pyridin-3-yl)benzyl)piperazin-1-yl)pyrimidine-4-carbonitrile] | 0.06 to 0.6 µM |
| N#Cc1ncnc(N2CC3CCC(C2)N3Cc2ccc(-n3c(-c4cccnc4N)nc4ccc(N5CCOCC5)nc43)cc2)n1 [Example 285, 4-(8-(4-(2-(2-Aminopyridin-3-yl)-5-morpholino-3H-imidazo[4,5-b]pyridin-3-yl)benzyl)-3,8-diazabicyclo[3.2.1]octan-3-yl)-1,3,5-triazine-2-carbonitrile] | < 0.015 µM |
| CC(C)c1ccc2nc(-c3cccnc3N)n(-c3ccc(CN4CCC(Nc5ccnc(C#N)n5)CC4)cc3)c2n1 [Example 286, 4-((1-(4-(2-(2-Aminopyridin-3-yl)-5-isopropyl-3H-imidazo[4,5-b]pyridin-3-yl)benzyl)piperidin-4-yl)amino)pyrimidine-2-carbonitrile] | < 0.015 µM |
| COc1ccc2nc(-c3cccnc3N)n(-c3ccc(CN4CCC(Nc5ccnc(C#N)n5)CC4)cc3)c2n1 [Example 287, 4-((1-(4-(2-(2-Aminopyridin-3-yl)-5-methoxy-3H-imidazo[4,5-b]pyridin-3-yl)benzyl)piperidin-4-yl)amino)pyrimidine-2-carbonitrile] | < 0.015 µM |
| N#Cc1nccc(NC2CCN(Cc3ccc(-n4c(-c5cccnc5N)nc5ccc(C(N)=O)nc54)cc3)CC2)n1 [Example 288, 2-(2-aminopyridin-3-yl)-3-(4-((4-((2-cyanopyrimidin-4-yl)amino)piperidin-1-yl)methyl)phenyl)-3H-imidazo[4,5-b]pyridine-5-carboxamide] | 0.015 to 0.06 µM |
| CN(C)C(=O)c1ccc2nc(-c3cccnc3N)n(-c3ccc(CN4CCC(Nc5ccnc(C#N)n5)CC4)cc3)c2n1 [Example 289, 2-(2-aminopyridin-3-yl)-3-(4-((4-((2-cyanopyrimidin-4-yl)amino)piperidin-1-yl)methyl)phenyl)-N,N-dimethyl-3H-imidazo[4,5-b]pyridine-5-carboxamide] | 0.06 to 0.6 µM |
| N#Cc1cc(N2CCN(Cc3ccc(-n4c(-c5cccnc5N)nc5ccc(C6CC6)nc54)cc3)CC2)ncn1 [Example 290, 6-(4-(4-(2-(2-Aminopyridin-3-yl)-5-cyclopropyl-3H-imidazo[4,5-b]pyridin-3-yl)benzyl)piperazin-1-yl)pyrimidine-4-carbonitrile] | 0.015 to 0.06 µM |
| N#Cc1cc(NC2CCN(Cc3ccc(-n4c(-c5cccnc5N)nc5ccc(C6CC6)nc54)cc3)CC2)ncn1 [Example 291, 6-((1-(4-(2-(2-Aminopyridin-3-yl)-5-cyclopropyl-3H-imidazo[4,5-b]pyridin-3-yl)benzyl)piperidin-4-yl)amino)pyrimidine-4-carbonitrile] | 0.015 to 0.06 µM |
| N#Cc1ncnc(N2CCN(Cc3ccc(-n4c(-c5cccnc5N)nc5ccc(N6CCOCC6)nc54)cc3)CC2)n1 [Example 292, 4-(4-(4-(2-(2-Aminopyridin-3-yl)-5-morpholino-3H-imidazo[4,5-b]pyridin-3-yl)benzyl)piperazin-1-yl)-1,3,5-triazine-2-carbonitrile] | < 0.015 µM |
| N#Cc1nccc(NC2CCN(Cc3ccc(-n4c(-c5cccnc5N)nc5ccc(C6CC6)nc54)cc3)CC2)n1 [Example 298, 4-((1-(4-(2-(2-Aminopyridin-3-yl)-5-cyclopropyl-3H-imidazo[4,5-b]pyridin-3-yl)benzyl)piperidin-4-yl)amino)pyrimidine-2-carbonitrile] | < 0.015 µM |
| N#Cc1nccc(NC2CCN(Cc3ccc(-n4c(-c5cccnc5N)nc5ccc(C6CCOCC6)nc54)cc3)CC2)n1 [Example 299, 4-((1-(4-(2-(2-Aminopyridin-3-yl)-5-(tetrahydro-2H-pyran-4-yl)-3H-imidazo[4,5-b]pyridin-3-yl)benzyl)piperidin-4-yl)amino)pyrimidine-2-carbonitrile] | < 0.015 µM |
| N#Cc1ncnc(NC2CN(Cc3ccc(-n4c(-c5cccnc5N)nc5ccc(-c6ccccc6)nc54)cc3)C2)n1 [Example 300, 4-((1-(4-(2-(2-Aminopyridin-3-yl)-5-phenyl-3H-imidazo[4,5-b]pyridin-3-yl)benzyl)azetidin-3-yl)amino)-1,3,5-triazine-2-carbonitrile] | 0.015 to 0.06 µM |
| N#Cc1ncnc(N2CC3(CCN(Cc4ccc(-n5c(-c6cccnc6N)nc6ccc(-c7ccccc7)nc65)cc4)C3)C2)n1 [Example 301, 4-(6-(4-(2-(2-Aminopyridin-3-yl)-5-phenyl-3H-imidazo[4,5-b]pyridin-3-yl)benzyl)-2,6-diazaspiro[3.4]octan-2-yl)-1,3,5-triazine-2-carbonitrile] | < 0.015 µM |
| N#Cc1nccc(N2CCC3(CCN(Cc4ccc(-n5c(-c6cccnc6N)nc6ccc(-c7ccccc7)nc65)cc4)C3)C2)n1 (stereo not shown) [Example 302, 4-(7-(4-(2-(2-Aminopyridin-3-yl)-5-phenyl-3H-imidazo[4,5-b]pyridin-3-yl)benzyl)-2,7-diazaspiro[4.4]nonan-2-yl)pyrimidine-2-carbonitrile] | < 0.015 µM |
| N#Cc1ncnc(N2CC3(CN(Cc4ccc(-n5c(-c6cccnc6N)nc6ccc(-c7ccccc7)nc65)cc4)C3)C2)n1 [Example 303, 4-(6-(4-(2-(2-Aminopyridin-3-yl)-5-phenyl-3H-imidazo[4,5-b]pyridin-3-yl)benzyl)-2,6-diazaspiro[3.3]heptan-2-yl)-1,3,5-triazine-2-carbonitrile] | < 0.015 µM |

Continued, values first:

| IC50 | Structure (SMILES) |
| --- | --- |
| < 0.015 µM | N#Cc1nccc(N2CCN(Cc3ccc(-n4c(-c5cccnc5N)nc5ccc(-c6ccccc6F)nc54)cc3)CC2)n1 [Example 281, 4-(4-(4-(2-(2-Aminopyridin-3-yl)-5-(2-fluorophenyl)-3H-imidazo[4,5-b]pyridin-3-yl)benzyl)piperazin-1-yl)pyrimidine-2-carbonitrile] |
| 0.015 to 0.06 µM | N#Cc1ccnc(N2CCN(Cc3ccc(-n4c(-c5cccnc5N)nc5ccc(-c6ccccc6F)nc54)cc3)CC2)n1 [Example 282, 2-(4-(4-(2-(2-Aminopyridin-3-yl)-5-(2-fluorophenyl)-3H-imidazo[4,5-b]pyridin-3-yl)benzyl)piperazin-1-yl)pyrimidine-4-carbonitrile] |
| 0.015 to 0.06 µM | N#Cc1ccnc(N2CCN(Cc3ccc(-n4c(-c5cccnc5N)nc5ccc(N6CCCNC(=O)C6)nc54)cc3)CC2)n1 [Example 283, 2-(4-(4-(2-(2-Aminopyridin-3-yl)-5-(3-oxo-1,4-diazepan-1-yl)-3H-imidazo[4,5-b]pyridin-3-yl)benzyl)piperazin-1-yl)pyrimidine-4-carbonitrile] |
| < 0.015 µM | N#Cc1nccc(N2CCN(Cc3ccc(-n4c(-c5cccnc5N)nc5ccc(-c6ccccc6C#N)nc54)cc3)CC2)n1 [Example 293, 4-(4-(4-(2-(2-Aminopyridin-3-yl)-5-(2-cyanophenyl)-3H-imidazo[4,5-b]pyridin-3-yl)benzyl)piperazin-1-yl)pyrimidine-2-carbonitrile] |
| 0.015 to 0.06 µM | N#Cc1ccc(-c2ccc3nc(-c4cccnc4N)n(-c4ccc(CN5CCN(c6ccnc(C#N)n6)CC5)cc4)c3n2)cc1 [Example 294, 4-(4-(4-(2-(2-Aminopyridin-3-yl)-5-(4-cyanophenyl)-3H-imidazo[4,5-b]pyridin-3-yl)benzyl)piperazin-1-yl)pyrimidine-2-carbonitrile] |
| < 0.015 µM | N#Cc1nccc(N2CCN(Cc3ccc(-n4c(-c5cccnc5N)nc5ccc(-c6cccc(F)c6)nc54)cc3)CC2)n1 [Example 295, 4-(4-(4-(2-(2-Aminopyridin-3-yl)-5-(3-fluorophenyl)-3H-imidazo[4,5-b]pyridin-3-yl)benzyl)piperazin-1-yl)pyrimidine-2-carbonitrile] |
| < 0.015 µM | N#Cc1nccc(N2CCN(Cc3ccc(-n4c(-c5cccnc5N)nc5ccc(-c6cccc(Cl)c6)nc54)cc3)CC2)n1 [Example 296, 4-(4-(4-(2-(2-Aminopyridin-3-yl)-5-(3-chlorophenyl)-3H-imidazo[4,5-b]pyridin-3-yl)benzyl)piperazin-1-yl)pyrimidine-2-carbonitrile] |
| 0.06 to 0.6 µM | N#Cc1ccnc(N2CCN(Cc3ccc(-n4c(-c5cccnc5N)nc5ccc(-c6cccc(Cl)c6)nc54)cc3)CC2)n1 [Example 297, 2-(4-(4-(2-(2-Aminopyridin-3-yl)-5-(3-chlorophenyl)-3H-imidazo[4,5-b]pyridin-3-yl)benzyl)piperazin-1-yl)pyrimidine-4-carbonitrile] |
| < 0.015 µM | N#Cc1ncnc(N2CCN(Cc3ccc(-n4c(-c5cccnc5N)nc5ccc(-c6ccccc6Cl)nc54)cc3)CC2)n1 [Example 304, 4-(4-(4-(2-(2-Aminopyridin-3-yl)-5-(2-chlorophenyl)-3H-imidazo[4,5-b]pyridin-3-yl)benzyl)piperazin-1-yl)-1,3,5-triazine-2-carbonitrile] |
